Reference: ChEMBL document CHEMBL1126430, “The role of arginine in interactions of microcystins with protein phosphatases 1 and 2a” (Bioorg Med Chem Lett, 1992)
Starred links: 1 amine or outer side, 2 acyl side, 3 side chain; linkers in the order of their positions; H or OH if unused. Positions of bridges follow the written chain, without caps; N, C: chain ends. Non-standard residues stand in square brackets, D forms with d. Residues, ends and D or L forms follow the SMILES beside them. Adda = CO[C@@H](Cc1ccccc1)[C@@H](C)/C=C(C)/C=C/[C@H](N[*:1])[C@H](C)C(=O)[*:2]; dAsp(3S-Me) = C[C@H](C(=O)[*:3])[C@@H](N[*:1])C(=O)[*:2]; d(γGlu) = O=C(O)[C@@H](CCC(=O)[*:2])N[*:1]; NMeDha = C=C(NC)C(=O)O

What was measured:
[1] = Effective dose that causes 50 % inhibition of protein phosphatase 2A (PP2A), isolated from mouse skin
[2] = Compound was evaluated for the ability to inhibit specific [3H]-okadaic acid binding to protein phosphatase 2A (PP2A)
[3] = Compound was evaluated for the ability to inhibit specific [3H]-okadaic acid binding to Protein phosphatase 1
[4] = Compound was evaluated for the ability to inhibit dephosphorylation of [32P]phosphorylase by protein phosphatase 2A (PP2A)
[5] = Compound was evaluated for the ability to inhibit dephosphorylation of [32P]phosphorylase by Protein phosphatase 1

Structure (SMILES)	ED50 [1] [pM]	ED50 [2] [pM]	ED50 [3] [pM]	ED50 [4] [pM]	ED50 [5] [pM]
CC=C1C(=O)N[C@@H](C(=O)O)[C@H](C)C(=O)N[C@@H](CCCNC(=N)N)C(=O)N[C@@H](/C=C/C(C)=C/[C@H](C)[C@H](Cc2ccccc2)OC)[C@H](C)C(=O)N[C@@H](C(=O)O)CCC(=O)N1C	900				
C=C1C(=O)N[C@H](C)C(=O)N[C@@H](CC(C)C)C(=O)N[C@@H](C(=O)O)[C@H](C)C(=O)N[C@@H](C)C(=O)N[C@@H](/C=C/C(C)=C/[C@H](C)[C@H](Cc2ccccc2)OC)[C@H](C)C(=O)N[C@@H](C(=O)O)CCC(=O)N1C (A[Adda][d(γGlu)][NMeDha][dA]L[dAsp(3S-Me)]-OH; lactam N-7)		10000	10600	380	900
C=C1C(=O)N[C@H](C)C(=O)N[C@@H](CC(C)C)C(=O)N[C@@H](C(=O)O)[C@H](C)C(=O)N[C@@H](CCCNC(=N)N)C(=O)N[C@@H](/C=C/C(C)=C/[C@H](C)[C@H](Cc2ccccc2)OC)[C@H](C)C(=O)N[C@@H](C(=O)O)CCC(=O)N1C (R[Adda][d(γGlu)][NMeDha][dA]L[dAsp(3S-Me)]-OH; lactam N-7)	800	5200	7800	320	440
